Data: ChEMBL document CHEMBL3875185, “Structure-anticonvulsant activity studies in the group of (E)-N-cinnamoyl aminoalkanols derivatives monosubstituted in phenyl ring with 4-Cl, 4-CH3 or 2-CH3” (Bioorg Med Chem, 2017)

Experiment: Displacement of [35S]TBPS from rat cerebral cortex GABA-gated chloride channel measured after 60 mins by scintillation counting method

C=C(C)[C@@H]1[C@H]2OC(=O)[C@@H]1[C@]1(O)C[C@H]3O[C@]34C(=O)O[C@H]2[C@]14C [PICROTOXININ]
IC50: 77 nM
